Results published in patent publication US10603322B2, “Therapeutic targeting of casein kinase 1δ in breast cancer” (The Scripps Research Institute, priority 2015, dated 2020).

Key:
MDA-MB-231 TNBC cells = test: Cell proliferation / growth assay; format: cell-based, human
cancer cells = details: cited from earlier work
BCM-4013 PDX tumors = details: mouse, in vivo; cited from earlier work

For `CC(C)(C)c1cc(NC(=O)Nc2ccc(-c3cn4c(n3)sc3cc(OCCN5CCOCC5)ccc34)cc2)no1` [AC220, reference compound], the anti-proliferative activity (MDA-MB-231 TNBC cells) was “insensitive”.

For `COc1cc(OC)c(C=C2C(O)=Nc3ccccc32)c(OC)c1` [IC261], the mode of action (cancer cells; not by inhibition of CK1δ/CK1ε) is given as “blocking tubulin function”.

In the case of `Nc1nccc(-c2c(-c3ccc(F)cc3)ncn2C2CCCCC2)n1` [PF670462], the anti-cancer activity (cancer cells) is listed as “lacks anti-cancer activity”.

For `CC(=O)O[C@@]12CO[C@@H]1C[C@H](O)[C@@]1(C)C(=O)[C@H](O)C3=C(C)[C@@H](OC(=O)[C@H](O)[C@@H](NC(=O)OC(C)(C)C)c4ccccc4)C[C@@](O)([C@@H](OC(=O)c4ccccc4)[C@H]21)C3(C)C` [docetaxel], the “response of the BCM-4013 model to treatment” value (BCM-4013 PDX tumors) is given as “limited response”.
